Measured values reported in the NIST ThermoML archive (doi:10.1016/j.fluid.2006.01.027).

Conditions: Liquid, Pulse-echo method

C=CCCCCCCCCCCCCCC [1-hexadecene]
Conditions | speed of sound [m/s]
303.15 K, 100 kPa | 1314.4
303.15 K, 2500 kPa | 1327.9
303.15 K, 5000 kPa | 1341.7
303.15 K, 10000 kPa | 1368.2
303.15 K, 15000 kPa | 1393.7
303.15 K, 20000 kPa | 1418.2
303.15 K, 30000 kPa | 1464.6
303.15 K, 40000 kPa | 1508
303.15 K, 60000 kPa | 1587.7
303.15 K, 80000 kPa | 1659.7
303.15 K, 100000 kPa | 1725.7
313.15 K, 100 kPa | 1278.1
313.15 K, 2500 kPa | 1292.1
313.15 K, 5000 kPa | 1306.4
313.15 K, 10000 kPa | 1333.9
313.15 K, 15000 kPa | 1360.2
313.15 K, 20000 kPa | 1385.5
313.15 K, 30000 kPa | 1433.2
313.15 K, 40000 kPa | 1477.8
313.15 K, 60000 kPa | 1559.3
313.15 K, 80000 kPa | 1632.8
313.15 K, 100000 kPa | 1700
323.15 K, 100 kPa | 1242.5
323.15 K, 2500 kPa | 1257.1
323.15 K, 5000 kPa | 1271.9
323.15 K, 10000 kPa | 1300.3
323.15 K, 15000 kPa | 1327.5
323.15 K, 20000 kPa | 1353.6
323.15 K, 30000 kPa | 1402.7
323.15 K, 40000 kPa | 1448.4
323.15 K, 60000 kPa | 1531.8
323.15 K, 80000 kPa | 1606.8
323.15 K, 100000 kPa | 1675.2
333.15 K, 100 kPa | 1207.6
333.15 K, 2500 kPa | 1222.7
333.15 K, 5000 kPa | 1238
333.15 K, 10000 kPa | 1267.5
333.15 K, 15000 kPa | 1295.6
333.15 K, 20000 kPa | 1322.4
333.15 K, 30000 kPa | 1372.9
333.15 K, 40000 kPa | 1419.8
333.15 K, 60000 kPa | 1505.1
333.15 K, 80000 kPa | 1581.5
333.15 K, 100000 kPa | 1651.1
343.15 K, 100 kPa | 1173.2
343.15 K, 2500 kPa | 1188.9
343.15 K, 5000 kPa | 1204.9
343.15 K, 10000 kPa | 1235.4
343.15 K, 15000 kPa | 1264.4
343.15 K, 20000 kPa | 1292.1
343.15 K, 30000 kPa | 1343.9
343.15 K, 40000 kPa | 1392
343.15 K, 60000 kPa | 1479.1
343.15 K, 80000 kPa | 1556.9
343.15 K, 100000 kPa | 1627.7
353.15 K, 100 kPa | 1139.5
353.15 K, 2500 kPa | 1155.8
353.15 K, 5000 kPa | 1172.3
353.15 K, 10000 kPa | 1204
353.15 K, 15000 kPa | 1233.9
353.15 K, 20000 kPa | 1262.4
353.15 K, 30000 kPa | 1315.7
353.15 K, 40000 kPa | 1364.9
353.15 K, 60000 kPa | 1453.9
353.15 K, 80000 kPa | 1533.1
353.15 K, 100000 kPa | 1605
363.15 K, 100 kPa | 1106.4
363.15 K, 2500 kPa | 1123.3
363.15 K, 5000 kPa | 1140.5
363.15 K, 10000 kPa | 1173.2
363.15 K, 15000 kPa | 1204.1
363.15 K, 20000 kPa | 1233.5
363.15 K, 30000 kPa | 1288.2
363.15 K, 40000 kPa | 1338.6
363.15 K, 60000 kPa | 1429.4
363.15 K, 80000 kPa | 1510
363.15 K, 100000 kPa | 1583
373.15 K, 100 kPa | 1073.8
373.15 K, 2500 kPa | 1091.4
373.15 K, 5000 kPa | 1109.2
373.15 K, 10000 kPa | 1143.1
373.15 K, 15000 kPa | 1175
373.15 K, 20000 kPa | 1205.2
373.15 K, 30000 kPa | 1261.4
373.15 K, 40000 kPa | 1313
373.15 K, 60000 kPa | 1405.5
373.15 K, 80000 kPa | 1487.6
373.15 K, 100000 kPa | 1561.6
383.15 K, 100 kPa | 1041.7
383.15 K, 2500 kPa | 1060.1
383.15 K, 5000 kPa | 1078.6
383.15 K, 10000 kPa | 1113.6
383.15 K, 15000 kPa | 1146.5
383.15 K, 20000 kPa | 1177.7
383.15 K, 30000 kPa | 1235.3
383.15 K, 40000 kPa | 1288.1
383.15 K, 60000 kPa | 1382.4
383.15 K, 80000 kPa | 1465.8
383.15 K, 100000 kPa | 1540.9
393.15 K, 100 kPa | 1010.2
393.15 K, 2500 kPa | 1029.3
393.15 K, 5000 kPa | 1048.5
393.15 K, 10000 kPa | 1084.8
393.15 K, 15000 kPa | 1118.8
393.15 K, 20000 kPa | 1150.8
393.15 K, 30000 kPa | 1209.9
393.15 K, 40000 kPa | 1263.8
393.15 K, 60000 kPa | 1360
393.15 K, 80000 kPa | 1444.6
393.15 K, 100000 kPa | 1520.8
403.15 K, 100 kPa | 979.2
403.15 K, 2500 kPa | 999.1
403.15 K, 5000 kPa | 1019
403.15 K, 10000 kPa | 1056.6
403.15 K, 15000 kPa | 1091.6
403.15 K, 20000 kPa | 1124.6
403.15 K, 30000 kPa | 1185.2
403.15 K, 40000 kPa | 1240.3
403.15 K, 60000 kPa | 1338.2
403.15 K, 80000 kPa | 1424.1
403.15 K, 100000 kPa | 1501.3
413.15 K, 100 kPa | 948.7
413.15 K, 2500 kPa | 969.4
413.15 K, 5000 kPa | 990.1
413.15 K, 10000 kPa | 1029
413.15 K, 15000 kPa | 1065.2
413.15 K, 20000 kPa | 1099
413.15 K, 30000 kPa | 1161.2
413.15 K, 40000 kPa | 1217.4
413.15 K, 60000 kPa | 1317
413.15 K, 80000 kPa | 1404.2
413.15 K, 100000 kPa | 1482.4
423.15 K, 100 kPa | 918.8
423.15 K, 2500 kPa | 940.3
423.15 K, 5000 kPa | 961.8
423.15 K, 10000 kPa | 1002
423.15 K, 15000 kPa | 1039.3
423.15 K, 20000 kPa | 1074.1
423.15 K, 30000 kPa | 1137.8
423.15 K, 40000 kPa | 1195.2
423.15 K, 60000 kPa | 1296.5
423.15 K, 80000 kPa | 1384.9
423.15 K, 100000 kPa | 1464
433.15 K, 100 kPa | 889.2
433.15 K, 2500 kPa | 911.7
433.15 K, 5000 kPa | 934
433.15 K, 10000 kPa | 975.7
433.15 K, 15000 kPa | 1014.1
433.15 K, 20000 kPa | 1049.8
433.15 K, 30000 kPa | 1115
433.15 K, 40000 kPa | 1173.6
433.15 K, 60000 kPa | 1276.6
433.15 K, 80000 kPa | 1366.2
433.15 K, 100000 kPa | 1446.2
